Test results taken from paper PMC7794376 (Nature Communications, 2021).
In brackets after ≈: the same amount, converted by molar mass. Several values for one entry are separate records, joined by “and”; a condition that tells them apart may be missing. Identical values can stand only once. Like-named read-outs stand apart in the source and are kept apart here.

Assays:
[1] = target: T1, MtbCoaBC (Mycobacterium tuberculosis, UniProt P9WNZ1); test: biochemical; type: biochemical; details: for activity at 0.0625 µM / activity at 0.25 µM / activity at 0.5 µM: relative to average DMSO CT; for Activity R1 / Activity R3: slope of absorbance at 360 vs time (s); for inhibition, IC50 MtbCoaBC 1b / remaining activity relative to control, IC50 MtbCoaBC 1b: three replicates, column head and unit not shown
T1 sequence (P9WNZ1 whole entry): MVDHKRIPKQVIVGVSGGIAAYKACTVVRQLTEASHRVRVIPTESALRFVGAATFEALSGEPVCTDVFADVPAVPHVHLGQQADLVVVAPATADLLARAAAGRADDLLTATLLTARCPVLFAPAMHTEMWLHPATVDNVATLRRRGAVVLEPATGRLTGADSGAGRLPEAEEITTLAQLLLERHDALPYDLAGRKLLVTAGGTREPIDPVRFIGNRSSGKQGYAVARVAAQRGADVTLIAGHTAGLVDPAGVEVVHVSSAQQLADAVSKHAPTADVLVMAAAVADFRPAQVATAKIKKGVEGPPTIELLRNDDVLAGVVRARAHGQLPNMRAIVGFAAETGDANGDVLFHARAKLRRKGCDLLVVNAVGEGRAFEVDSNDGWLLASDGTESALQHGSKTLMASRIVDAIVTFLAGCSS

[2] = target: human CoaB (HCoaB) (Homo sapiens, UniProt Q9HAB8); test: EnzChek pyrophosphate assay, HCoaB; type: biochemical; details: for Activity: slope of absorbance at 360 nm vs time (s)
Sequence of human CoaB (HCoaB) (Q9HAB8 whole entry): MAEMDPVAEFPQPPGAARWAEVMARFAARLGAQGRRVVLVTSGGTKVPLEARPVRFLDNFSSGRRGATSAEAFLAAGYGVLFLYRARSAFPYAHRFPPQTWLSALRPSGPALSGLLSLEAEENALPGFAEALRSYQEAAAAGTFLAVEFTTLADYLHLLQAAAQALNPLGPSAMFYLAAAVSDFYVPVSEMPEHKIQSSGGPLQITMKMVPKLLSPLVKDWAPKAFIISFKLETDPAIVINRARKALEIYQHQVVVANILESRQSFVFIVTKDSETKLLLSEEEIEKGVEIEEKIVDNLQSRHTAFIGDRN

[3] = test system: M. tuberculosis H37Rv; test: MIC determination in different media; type: cell-based; details: Mycobacterium tuberculosis, read-out: Minimum inhibitory concentration (MIC)
[4] = target: T1, MtbCoaBC; test: High-throughput end-point pyrophosphate quantification assay (Biomol Green); type: biochemical; details: MtbCoaB activity; end-point, 2 µM CTP, 40 µM L-cysteine, 30 µM PPA; read-out: IC50 biomol green assay
[5] = inhibitor concentration 1 (log 0)
[6] = inhibitor concentration 2 (log 0.30103)
[7] = 3.125 uM 1b, relative to average DMSO CT, replicates R1-R3
[8] = 6.25 uM 1b, relative to average DMSO CT, replicates R1-R3
[9] = 25 uM 1b, relative to average DMSO CT, replicates R1-R3
[10] = 50 uM 1b, relative to average DMSO CT, replicates R1-R3
[11] = 100 uM 1b, relative to average DMSO CT, replicates R1-R3

SMILES: O=C(c1ccc(O)cc1)c1ccc(O)c(O)c1O [compound 1b]
- activity at 0.0625 µM ([1]; 0.0625 uM 1b, replicate R1, read-out: Activity % R1): 90.5%
- Activity R1 ([1]; 0.0625 uM 1b, replicate R1): 0.0001736
- inhibition at 0.0625 µM ([1]; 0.0625 uM 1b, replicate R2, read-out: Inhibition % R2): 5.43%
- activity at 0.0625 µM ([1]; 0.0625 uM 1b, replicate R2, read-out: Activity % R2): 94.6%
- inhibition at 0.0625 µM ([1]; 0.0625 uM 1b, replicate R3, read-out: Inhibition % R3): 12.9%
- activity at 0.0625 µM ([1]; 0.0625 uM 1b, replicate R3, read-out: Activity % R3): 87.1%
- Activity R3 ([1]; 0.0625 uM 1b, replicate R3): 0.0001671
- inhibition at 0.25 µM ([1]; 0.25 uM 1b, replicate R1, read-out: Inhibition % R1): 34.5%
- activity at 0.25 µM ([1]; 0.25 uM 1b, replicate R1, read-out: Activity % R1): 65.5%
- Activity R1 ([1]; 0.25 uM 1b, replicate R1): 0.0001256
- inhibition at 0.25 µM ([1]; 0.25 uM 1b, replicate R2, read-out: Inhibition % R2): 38.6%
- activity at 0.25 µM ([1]; 0.25 uM 1b, replicate R2, read-out: Activity % R2): 61.4%
- inhibition at 0.25 µM ([1]; 0.25 uM 1b, replicate R3, read-out: Inhibition % R3): 42.2%
- activity at 0.25 µM ([1]; 0.25 uM 1b, replicate R3, read-out: Activity % R3): 57.8%
- Activity R3 ([1]; 0.25 uM 1b, replicate R3): 0.0001108
- inhibition at 0.5 µM ([1]; 0.5 uM 1b, replicate R1, read-out: Inhibition % R1): 89.6%
- activity at 0.5 µM ([1]; 0.5 uM 1b, replicate R1, read-out: Activity % R1): 10.4%
- Activity R1 ([1]; 0.5 uM 1b, replicate R1): 0.000019995
- inhibition at 0.5 µM ([1]; 0.5 uM 1b, replicate R2, read-out: Inhibition % R2): 80.6%
- activity at 0.5 µM ([1]; 0.5 uM 1b, replicate R2, read-out: Activity % R2): 19.4%
- inhibition at 0.5 µM ([1]; 0.5 uM 1b, replicate R3, read-out: Inhibition % R3): 86.3%
- activity at 0.5 µM ([1]; 0.5 uM 1b, replicate R3, read-out: Activity % R3): 13.7%
- Activity R3 ([1]; 0.5 uM 1b, replicate R3): 0.000026339
- inhibition, IC50 MtbCoaBC 1b [1, 5]: 96.33 and 92.35 and 100.00
- remaining activity relative to control, IC50 MtbCoaBC 1b [1, 5]: -0.335 and 3.671 and 7.649
- inhibition, IC50 MtbCoaBC 1b [1, 6]: 100.00
- remaining activity relative to control, IC50 MtbCoaBC 1b [1, 6]: -0.361 and -1.371 and -2.001
- IC50 ([1]; read-out: IC50 EnzChek MtbCoaBC): 0.28 ± 0.05 µM
- IC50 ([2]; 1 µM enzyme, average of three independent experiments ± SD): 122 ± 22 µM
- Activity % [2, 7]: 96.65% and 97.82%
- activity at 3.125 µM [2, 7]: 97.6%
- Inhibition % ([2]; 3.125 uM 1b, replicates R1-R3): 2.18% and 2.43%
- inhibition at 3.125 µM ([2]; 3.125 uM 1b, replicates R1-R3): 3.35%
- Activity ([2]; 3.125 uM 1b, replicates R1-R3): 0.0001351 and 0.0001338 and 0.0001354
- Activity % [2, 8]: 95.26% and 96.32%
- activity at 6.25 µM [2, 8]: 97.7%
- Inhibition % ([2]; 6.25 uM 1b, replicates R1-R3): 4.74% and 3.68% and 2.34%
- Activity ([2]; 6.25 uM 1b, replicates R1-R3): 0.0001352 and 0.0001319 and 0.0001333
- Activity % [2, 9]: 82.72% and 82.77%
- activity at 25 µM [2, 9]: 81.5%
- Inhibition % ([2]; 25 uM 1b, replicates R1-R3): 17.23% and 18.55%
- inhibition at 25 µM ([2]; 25 uM 1b, replicates R1-R3): 17.3%
- Activity ([2]; 25 uM 1b, replicates R1-R3): 0.0001127 and 0.0001145 and 0.0001146
- Activity % [2, 10]: 63.96% and 63.87%
- activity at 50 µM [2, 10]: 75.6%
- Inhibition % ([2]; 50 uM 1b, replicates R1-R3): 36.13% and 24.38%
- inhibition at 50 µM ([2]; 50 uM 1b, replicates R1-R3): 36%
- Activity ([2]; 50 uM 1b, replicates R1-R3): 0.0001047 and 0.000088534 and 0.000088398
- Activity % [2, 11]: 56.11% and 53.46%
- activity at 100 µM [2, 11]: 60.5%
- Inhibition % ([2]; 100 uM 1b, replicates R1-R3): 46.54% and 39.47%
- inhibition at 100 µM ([2]; 100 uM 1b, replicates R1-R3): 43.9%
- Activity ([2]; 100 uM 1b, replicates R1-R3): 0.000083783 and 0.000077656 and 0.000074000
- Activity ([2]; 200 uM 1b, replicates R1-R3, compound interference at 200uM makes the assay unreliable): -0.000004063 and 0.000002127 and -0.000001796
- MIC ([3]; 7H9/ADC/Glycerol): > 250 µM
- MIC ([3]; 7H9/Cholesterol/Tyloxapol): > 250 µM
- MIC ([3]; GAST/Fe): 125 µM (≈ 30.8 µg/mL)
- IC50 [4]: 0.3 µM
